According to patent publication US20250197354A1, “SOLID STATE FORMS OF LX9211 AND SALTS THEREOF” (TEVA PHARMACEUTICALS INTERNATIONAL GMBH, priority 2022, published 2025):
In brackets after ≈: the same amount, converted by molar mass.

How the values were obtained:
Format in all cases: physicochemical
[1] = Solubility in water and pH 4.5 buffer, HPLC; conditions: 24 hours, 37±0.2° C.; for Solubility (mg/mL) pH 4.5: pH 4.5 buffer (USP)
Protocol: The solubilities of LX9211 dihydrogen phosphate forms S1 and S3 and LX9211 dihydrogen phosphate and urea, and LX9211 free base form A were determined in water and pH 4.5 buffer as follows:
About 80 mg of samples of the starting materials were weighed into 15 ml PP centrifuge tubes. 8 ml of appropriate buffer solution (pH 4.5 according to USP 35-NF 30 Buffer Solutions) or water was added. Tubes were stoppered and shaken at 160 rpm for 24 hours at 37±0.2° C. in an incubator shaker (Innova 4080, New Brunswick Scientific). Suspensions were filtered through 0.45 μm […] syringe filter (CHROMAFIL PTFE-45/25, Macherey-Nagel). Filtrates were sampled and concentration of the starting material was determined by HPLC according to corresponding standard.

[2] = Compression at a pressure of 1 ton, XRPD analysis; conditions: hydraulic press, 2 minutes
Protocol: (§1) Sample after being powdered in a mortar and pestle is applied directly on a silicon plate holder. The X-ray powder diffraction pattern was measured with Philips X'Pert PRO X-ray powder diffractometer, equipped with Cu irradiation source=1.54184 Å (Ångström), X'Celerator (2.022° 2θ) detector. Scanning parameters: angle range: 3-40 deg., step size 0.0167, time per step 37 s, continuous scan.
A sample of LX9211 dihydrogen phosphate form SI was subjected to a pressure of 1 ton (Perkin Elmer Hydraulic Press, set to 1 tons).
A sample of LX9211 dihydrogen phosphate form S3 was subjected to a pressure of 1 ton (Perkin Elmer Hydraulic Press, set to 1 tons).
A sample of LX9211 camsylate form K1 was subjected to a pressure of 1 ton (Perkin Elmer Hydraulic Press, set to 1 tons).
A sample of LX9211 hemihydrogen phosphate form S5 was subjected to a pressure of 1 ton (Perkin Elmer Hydraulic Press, set to 1 tons).

[3] = Strong grinding and solvent drop grinding, XRPD analysis
Protocol: as §1
(§2) Samples of LX9211 dihydrogen phosphate form S1 were subjected to strong grinding and to solvent drop grinding in acetone, ethanol (96%), and 2-propanol). Grinding was carried out on the samples alone, or in the presence of the solvent. In these experiments, about 20 mg of the sample is placed in a mortar and ground with a pestle for 2 minutes. The solvent, when used, as added to the crystalline material before grinding, in a volume of 10 microliters. XRPD analysis performed on each of the samples after the grinding experiment, confirmed no change in the starting material (Table 4):
as §2, with “S3” for “S1”, “6):” for “4):”
as §2, with “camsylate” for “dihydrogen phosphate”, “K1” for “S1”, “8):” for “4):”
as §2, with “hemihydrogen” for “dihydrogen”, “S5” for “S1”, “10): […]” for “4):”

DVS water uptake = conditions: at least up to 90% RH
[4] = 2-propanol 10 microliters, solvent drop grinding for 2 minutes
[5] = Acetone 10 microliters, solvent drop grinding for 2 minutes
[6] = Ethanol (96%) 10 microliters, solvent drop grinding for 2 minutes
[7] = No solvent, strong grinding in mortar for 2 minutes

Solubility (mg/mL) pH 4.5 [1] [mg/mL]	Solubility (mg/mL) water [1] [mg/mL]	XRPD analysis after pressure [2]	XRPD analysis results after grinding [3, 4]	XRPD analysis results after grinding [3, 5]	XRPD analysis results after grinding [3, 6]	XRPD analysis results after grinding [3, 7]	hygroscopicity (DVS) (DVS water uptake)	water uptake (DVS) (DVS water uptake)	Compound
9.7	0.1 (≈ 259 µM)	–	–	–	–	–	–	–	CC(C)C[C@](C)(N)COc1ccc(-c2ccnc(C(F)F)c2)nc1C(F)F [LX9211 free base form A, (S)-1-((2′,6-bis(difluoromethyl)-[2,4′-bipyridin]-5-yl)oxy)-2,4-dimethylpentan-2-amine]
13.8	25.0	no polymorphic conversion	No polymorphic conversion	No polymorphic conversion	No polymorphic conversion	No polymorphic conversion	–	–	CC(C)C[C@](C)(N)COc1ccc(-c2ccnc(C(F)F)c2)nc1C(F)F [LX9211 dihydrogen phosphate form S3]
16.4	24.4	–	–	–	–	–	–	–	CC(C)C[C@](C)(N)COc1ccc(-c2ccnc(C(F)F)c2)nc1C(F)F [LX9211 dihydrogen phosphate and urea form U1]
8.1	25.0	no polymorphic conversion	No polymorphic conversion	No polymorphic conversion	No polymorphic conversion	No polymorphic conversion	–	–	CC(C)C[C@](C)(N)COc1ccc(-c2ccnc(C(F)F)c2)nc1C(F)F [LX9211 dihydrogen phosphate form S1]
–	–	no polymorphic conversion	No polymorphic conversion	No polymorphic conversion	No polymorphic conversion	No polymorphic conversion	non-hygroscopic	less than 0.1%	CC(C)C[C@](C)(N)COc1ccc(-c2ccnc(C(F)F)c2)nc1C(F)F [LX9211 camsylate form K1]
